Reference: ChEMBL document CHEMBL1287771, “Novel hybrids of 15-membered 8a- and 9a-azahomoerythromycin A ketolides and quinolones as potent antibacterials” (2010)
Converted amounts (≈) assume the structure as drawn.

Assays:
Type in all cases: functional
Staphylococcus aureus [1] = experiment: Antibacterial activity against efflux-resistant Staphylococcus aureus B0331 by agar microdilution method
Streptococcus pneumoniae [2] = experiment: Antibacterial activity against erythromycin A-susceptible Streptococcus pneumoniae B0541 by agar microdilution method
Haemophilus influenzae = experiment: Antibacterial activity against Haemophilus influenzae B0529 by agar microdilution method
Streptococcus pyogenes [3] = experiment: Antibacterial activity against inducible macrolide-lincosamide-streptogramin B-resistant Streptococcus pyogenes B0543 by agar microdilution method
Moraxella catarrhalis = experiment: Antibacterial activity against Moraxella catarrhalis B0324 by agar microdilution method
Staphylococcus aureus [4] = experiment: Antibacterial activity against constitutive macrolide-lincosamide-streptogramin B-resistant Staphylococcus aureus B0330 by agar microdilution method
Staphylococcus aureus [5] = experiment: Antibacterial activity against erythromycin A-susceptible Staphylococcus aureus B0329 by agar microdilution method
Streptococcus pyogenes [6] = experiment: Antibacterial activity against erythromycin A-susceptible Streptococcus pyogenes B0542 by agar microdilution method
Streptococcus pyogenes [7] = experiment: Antibacterial activity against constitutive macrolide-lincosamide-streptogramin B-resistant Streptococcus pyogenes B0544 by agar microdilution method
Streptococcus pneumoniae [8] = experiment: Antibacterial activity against efflux-resistant Streptococcus pneumoniae B0326 by agar microdilution method
Streptococcus pneumoniae [9] = experiment: Antibacterial activity against constitutive macrolide-lincosamide-streptogramin B-resistant Streptococcus pneumoniae B0627 by agar microdilution method
Streptococcus pyogenes [10] = experiment: Antibacterial activity against efflux-resistant Streptococcus pyogenes B0545 by agar microdilution method
Staphylococcus aureus [11] = experiment: Antibacterial activity against inducible macrolide-lincosamide-streptogramin B-resistant Staphylococcus aureus B0538 by agar microdilution method

SMILES	MIC (Staphylococcus aureus [1]) [µg/mL]	MIC (Streptococcus pneumoniae [2]) [µg/mL]	MIC (Haemophilus influenzae) [µg/mL]	MIC (Streptococcus pyogenes [3]) [µg/mL]	MIC (Moraxella catarrhalis) [µg/mL]	MIC (Staphylococcus aureus [4]) [µg/mL]	MIC (Staphylococcus aureus [5]) [µg/mL]	MIC (Streptococcus pyogenes [6]) [µg/mL]	MIC (Streptococcus pyogenes [7]) [µg/mL]	MIC (Streptococcus pneumoniae [8]) [µg/mL]	MIC (Streptococcus pneumoniae [9]) [µg/mL]	MIC (Streptococcus pyogenes [10]) [µg/mL]	MIC (Staphylococcus aureus [11]) [µg/mL]
CC[C@H]1OC(=O)[C@H](C)C(=O)[C@H](C)[C@@H](O[C@@H]2O[C@H](C)C[C@H](N(C)C)[C@H]2O)[C@](C)(OCC(O)CNCCNc2ccc3c(c2F)c(=O)c(C(=O)O)cn3C2CC2)C[C@@H](C)NC(=O)[C@H](C)[C@H](O)[C@@]1(C)O (stereo partly drawn)	4 (≈ 4.21 µM)	≤ 0.125	2 (≈ 2.11 µM)	1 (≈ 1.05 µM)	2 (≈ 2.11 µM)	> 64	1 (≈ 1.05 µM)	≤ 0.125	8 (≈ 8.42 µM)	2 (≈ 2.11 µM)	2 (≈ 2.11 µM)	16 (≈ 16.8 µM)	1 (≈ 1.05 µM)
CC[C@H]1OC(=O)[C@H](C)[C@@H](O[C@@H]2C[C@@](C)(OC)[C@@H](O)[C@H](C)O2)[C@H](C)[C@@H](O[C@@H]2O[C@H](C)C[C@H](N(C)C)[C@H]2O)[C@](C)(OC/C=C/NCCc2ccc([N+](=O)[O-])cc2)C[C@@H](C)NC(=O)[C@H](C)[C@H](O)[C@@]1(C)O	32 (≈ 33.6 µM)	0.06 (≈ 0.0629 µM)	4 (≈ 4.2 µM)	2 (≈ 2.1 µM)	0.25 (≈ 0.262 µM)	> 64	0.5 (≈ 0.525 µM)	≤ 0.06	> 64	4 (≈ 4.2 µM)	32 (≈ 33.6 µM)	16 (≈ 16.8 µM)	64 (≈ 67.1 µM)
CC[C@H]1OC(=O)[C@H](C)C(=O)[C@H](C)[C@@H](O[C@@H]2O[C@H](C)C[C@H](N(C)C)[C@H]2O)[C@](C)(OCC(O)CNCCc2ccccc2)C[C@@H](C)NC(=O)[C@H](C)[C@H](O)[C@@]1(C)O (stereo partly drawn)	8 (≈ 10.4 µM)	0.25 (≈ 0.326 µM)	16 (≈ 20.9 µM)	1 (≈ 1.31 µM)	0.5 (≈ 0.653 µM)	> 64	4 (≈ 5.22 µM)	0.5 (≈ 0.653 µM)	16 (≈ 20.9 µM)	16 (≈ 20.9 µM)	8 (≈ 10.4 µM)	1 (≈ 1.31 µM)	16 (≈ 20.9 µM)
CC[C@H]1OC(=O)[C@H](C)C(=O)[C@H](C)[C@@H](O[C@@H]2O[C@H](C)C[C@H](N(C)C)[C@H]2O)[C@](C)(OC)C[C@@H](C)C(=O)[C@H](C)[C@H]2N(CCCCn3cnc(-c4cccnc4)c3)C(=O)O[C@]12C [TELITHROMYCIN]	0.25 (≈ 0.308 µM)	0.06 (≈ 0.0739 µM)	2 (≈ 2.46 µM)	≤ 0.06	≤ 0.125	> 64	≤ 0.125	≤ 0.06	4 (≈ 4.93 µM)	0.5 (≈ 0.616 µM)	≤ 0.125	0.25 (≈ 0.308 µM)	0.5 (≈ 0.616 µM)
CC[C@H]1OC(=O)[C@H](C)C(=O)[C@H](C)[C@@H](O[C@@H]2O[C@H](C)C[C@H](N(C)C)[C@H]2O)[C@](C)(OCC(O)CNCCc2cccnc2)C[C@@H](C)NC(=O)[C@H](C)[C@H](O)[C@@]1(C)O (stereo partly drawn)	4 (≈ 5.22 µM)	0.5 (≈ 0.652 µM)	8 (≈ 10.4 µM)	4 (≈ 5.22 µM)	1 (≈ 1.3 µM)	> 64	4 (≈ 5.22 µM)	0.25 (≈ 0.326 µM)	32 (≈ 41.7 µM)	8 (≈ 10.4 µM)	2 (≈ 2.61 µM)	2 (≈ 2.61 µM)	8 (≈ 10.4 µM)
CC[C@H]1OC(=O)[C@H](C)C(=O)[C@H](C)[C@@H](O[C@@H]2O[C@H](C)C[C@H](N(C)C)[C@H]2O)[C@](C)(OC/C=C/c2ccnc3ccccc23)C[C@@H](C)NC(=O)[C@H](C)[C@H](O)[C@@]1(C)O	2 (≈ 2.65 µM)	≤ 0.125	4 (≈ 5.29 µM)	2 (≈ 2.65 µM)	0.5 (≈ 0.661 µM)	> 64	0.5 (≈ 0.661 µM)	0.25 (≈ 0.331 µM)	16 (≈ 21.2 µM)	1 (≈ 1.32 µM)	> 64	2 (≈ 2.65 µM)	1 (≈ 1.32 µM)
CC[C@H]1OC(=O)[C@H](C)C(=O)[C@H](C)[C@@H](O[C@@H]2O[C@H](C)C[C@H](N(C)C)[C@H]2O)[C@](C)(OCC(O)CN[C@H](C)Cc2ccccc2)C[C@@H](C)NC(=O)[C@H](C)[C@H](O)[C@@]1(C)O (stereo partly drawn)	2 (≈ 2.56 µM)	≤ 0.125	1 (≈ 1.28 µM)	0.5 (≈ 0.641 µM)	0.25 (≈ 0.321 µM)	> 64	0.5 (≈ 0.641 µM)	≤ 0.125	4 (≈ 5.13 µM)	1 (≈ 1.28 µM)	2 (≈ 2.56 µM)	0.5 (≈ 0.641 µM)	2 (≈ 2.56 µM)
C=CCO[C@]1(C)C[C@@H](C)NC(=O)[C@H](C)[C@H](O)[C@@](C)(O)[C@@H](CC)OC(=O)[C@H](C)[C@@H](O[C@@H]2C[C@@](C)(OC)[C@@H](O)[C@H](C)O2)[C@H](C)[C@H]1O[C@@H]1O[C@H](C)C[C@H](N(C)C)[C@H]1O	64 (≈ 81.1 µM)	≤ 0.125	1 (≈ 1.27 µM)	16 (≈ 20.3 µM)	≤ 0.125	> 64	0.25 (≈ 0.317 µM)	≤ 0.125	> 64	8 (≈ 10.1 µM)	> 64	16 (≈ 20.3 µM)	> 64
CC[C@H]1OC(=O)[C@H](C)C(=O)[C@H](C)[C@@H](O[C@@H]2O[C@H](C)C[C@H](N(C)C)[C@H]2O)[C@](C)(OCC(O)CN2CCN(c3ccc4c(c3)c(=O)c(C(=O)O)cn4C3CC3)CC2)C[C@@H](C)NC(=O)[C@H](C)[C@H](O)[C@@]1(C)O (stereo partly drawn)	2 (≈ 2.09 µM)	≤ 0.125	2 (≈ 2.09 µM)	0.25 (≈ 0.261 µM)	1 (≈ 1.04 µM)	> 64	0.25 (≈ 0.261 µM)	≤ 0.125	4 (≈ 4.17 µM)	0.5 (≈ 0.522 µM)	1 (≈ 1.04 µM)	2 (≈ 2.09 µM)	0.25 (≈ 0.261 µM)
CC[C@H]1OC(=O)[C@H](C)C(=O)[C@H](C)[C@@H](O[C@@H]2O[C@H](C)C[C@H](N(C)C)[C@H]2O)[C@](C)(OCC=Cc2cnc3ccccc3c2)C[C@@H](C)C(=O)[C@H](C)[C@H]2NC(=O)O[C@@]21C [CETHROMYCIN]	0.25 (≈ 0.326 µM)	0.06 (≈ 0.0783 µM)	2 (≈ 2.61 µM)	≤ 0.06	≤ 0.125	> 64	≤ 0.06	≤ 0.06	1 (≈ 1.31 µM)	≤ 0.06	≤ 0.125	≤ 0.125	0.25 (≈ 0.326 µM)
C=CCO[C@]1(C)C[C@@H](C)C(=O)N[C@H](C)[C@H](O)[C@@](C)(O)[C@@H](CC)OC(=O)[C@H](C)[C@@H](O[C@@H]2C[C@@](C)(OC)[C@@H](O)[C@H](C)O2)[C@H](C)[C@H]1O[C@@H]1O[C@H](C)C[C@H](N(C)C)[C@H]1O	> 64	> 64	64 (≈ 81.1 µM)	4 (≈ 5.07 µM)	4 (≈ 5.07 µM)	> 64	> 64	≤ 0.125	> 64	> 64	> 64	> 64	> 64
CC[C@H]1OC(=O)[C@H](C)C(=O)[C@H](C)[C@@H](O[C@@H]2O[C@H](C)C[C@H](N(C)C)[C@H]2O)[C@](C)(OC/C=C/c2cnc3ccccc3c2)C[C@@H](C)C(=O)N[C@H](C)[C@H](O)[C@@]1(C)OC/C=C/c1cnc2ccccc2c1	0.5 (≈ 0.542 µM)	≤ 0.125	4 (≈ 4.33 µM)	0.5 (≈ 0.542 µM)	0.125 (≈ 0.135 µM)	> 64	≤ 0.125	≤ 0.125	8 (≈ 8.67 µM)	0.5 (≈ 0.542 µM)	4 (≈ 4.33 µM)	0.5 (≈ 0.542 µM)	0.25 (≈ 0.271 µM)
CC[C@H]1OC(=O)[C@H](C)[C@@H](O[C@@H]2C[C@@](C)(OC)[C@@H](O)[C@H](C)O2)[C@H](C)[C@@H](O[C@@H]2O[C@H](C)C[C@H](N(C)C)[C@H]2O)[C@](C)(OC/C=C/NCCc2ccc([N+](=O)[O-])cc2)C[C@@H](C)C(=O)N[C@H](C)[C@H](O)[C@@]1(C)O	32 (≈ 33.6 µM)	> 64	64 (≈ 67.1 µM)	4 (≈ 4.2 µM)	8 (≈ 8.39 µM)	> 64	32 (≈ 33.6 µM)	0.125 (≈ 0.131 µM)	> 64	16 (≈ 16.8 µM)	> 64	16 (≈ 16.8 µM)	> 64
CC[C@H]1OC(=O)[C@H](C)C(=O)[C@H](C)[C@@H](O[C@@H]2O[C@H](C)C[C@H](N(C)C)[C@H]2O)[C@](C)(OC/C=C/c2cnc3ccccc3c2)C[C@@H](C)C(=O)N[C@H](C)[C@H](O)[C@@]1(C)O	16 (≈ 21.2 µM)	2 (≈ 2.65 µM)	32 (≈ 42.3 µM)	64 (≈ 84.7 µM)	2 (≈ 2.65 µM)	> 64	8 (≈ 10.6 µM)	0.5 (≈ 0.661 µM)	> 64	8 (≈ 10.6 µM)	64 (≈ 84.7 µM)	4 (≈ 5.29 µM)	16 (≈ 21.2 µM)
CC[C@H]1OC(=O)[C@H](C)C(=O)[C@H](C)[C@@H](O[C@@H]2O[C@H](C)C[C@H](N(C)C)[C@H]2O)[C@](C)(OCC(O)CNC2CN(S(=O)(=O)c3ccc4ccncc4c3)CCN2)C[C@@H](C)NC(=O)[C@H](C)[C@H](O)[C@@]1(C)O (stereo partly drawn)	16 (≈ 17.1 µM)	≤ 0.125	> 64	16 (≈ 17.1 µM)	8 (≈ 8.54 µM)	> 64	8 (≈ 8.54 µM)	≤ 0.125	> 64	64 (≈ 68.3 µM)	32 (≈ 34.1 µM)	16 (≈ 17.1 µM)	16 (≈ 17.1 µM)
C=CCO[C@@]1(C)[C@@H](CC)OC(=O)[C@H](C)C(=O)[C@H](C)[C@@H](O[C@@H]2O[C@H](C)C[C@H](N(C)C)[C@H]2O)[C@](C)(OCC=C)C[C@@H](C)C(=O)N[C@H](C)[C@@H]1O [3-O-DESCLADINOSYL-6,12-DI-O-ALLYL-3-OXO-9A-AZA-9A-HOMOERYTHROMYCIN A]	16 (≈ 23.9 µM)	2 (≈ 2.99 µM)	16 (≈ 23.9 µM)	32 (≈ 47.8 µM)	≤ 0.125	> 64	8 (≈ 12 µM)	2 (≈ 2.99 µM)	> 64	4 (≈ 5.98 µM)	> 64	8 (≈ 12 µM)	8 (≈ 12 µM)
